The values below come from US8445526B2, “Compositions and methods for treatment of glaucoma” (Glaucoma & Nasal Therapies LLC, priority 2011, dated 2013).

≈ marks a conversion by molar mass, not a printed value. Read-outs that look alike come from different tables or passages of the source. Bounds are passed on as bounds.

Series [1] deals with α-2 over α-1 adrenergic receptors. The following applies: binding affinity for α-2 over α-1 receptors; cited from earlier work.
A further series deals with normotensive rabbits. Particulars: cited from earlier work; for contralateral (nontreated eye) IOP reduction compared to the treated eye / time of peak effect: normotensive rabbits; for time of peak effect: dexmedetomidine 0.05%, brimonidine tartrate 0.10%.
Series [2] relates to ocular hypertensive and normotensive eyes of patients. Particulars: cited from earlier work; for equivalent reduction in normotensive human eyes: prior art formulations.
The test system of series [3] is normotensive (<21 mm Hg) human subject. The following applies: after instillation. As to the method:
Various formulations of α-2 agonists were unilaterally administered to a normotensive (<21 mm Hg) human subject. The subject first underwent baseline IOP testing using standard applanation tonometry via slit lamp. After fluorescein instillation, the drug was instilled as a morning dose at between about 7:00 and 9:00 AM. […] Follow up IOP checks were designed to be about 4 hours after initial instillation, where instillation consisted of 1-2 drops.

In another series the test system is one eye of an individual. The series can be described thus: Example 3: cosmetic appearance (redness, whiteness) of the treated eye. Type of series: in vivo, human. Particulars: for Eye White Shade: baseline 1; for Redness: baseline 1.5.
Another series deals with normotensive eyes. The following applies: under specific and very limited formulation conditions.
Where [4] appears, read: conventional brimonidine formulations.

For `Nc1cc(Cl)c(N=C2NCCN2)c(Cl)c1` [Apraclondine], in series [1], the “α2:α1” value was 150.
In the case of `Brc1c(NC2=NCCN2)ccc2nccnc12` [Brimonidine], in the series on normotensive rabbits, the “contralateral (nontreated eye) IOP reduction compared to the treated eye” value is on record as “about 10%” and the “time of peak effect” value was “about 3 hours”. For the same compound, the “substantial local side effects” value in series [2] (conjunctival hyperemia, blepharitis, allergy, edema, follicles, foreign body sensation, burning, blurring) is on record as 10-25 % of users. Also, the “time of peak IOP reduction effect after instillation” value in series [2] (conventional brimonidine formulations, normotensive eyes) was 2 to 3 h. Also, in series [2] (setting [4]), the “duration of IOP reduction effect of a single dose” value was no more than 12 h and the “peak IOP reduction effect in normotensive eyes” value is reported as 15-18%. In series [2] (human, in vivo), the “peak IOP reduction in normotensive eyes (less than 21 mm Hg)” value is reported as 6-18%; the “peak IOP reduction in ocular hypertensive eyes” value was 20-25%; the “peak effect within (time of instillation)” value was 2 to 3 h; the “topical lid and conjunctival allergy, dryness, and redness” value was “over 10 % of patients”. Further, in series [2] (human, in vivo), the “users complaining of dryness” value is listed as “more than 10%”. Besides, in series [2] (long term use), the rebound redness is 20-25%. Moreover, in series [2], the “equivalent reduction in normotensive human eyes” value was “about 20%”. In addition, the duration of effect result in series [2] (typically) is “less than 12 hours”. In addition, the “IOP reduction peaking at (time)” value in series [3] was 2 h.
For the compound `Clc1cccc(Cl)c1N=C1NCCN1` [Clonidine], the “α2:α1” value in series [1] is listed as 200.
With `Cc1cccc([C@H](C)c2cnc[nH]2)c1C` [Dexmedetomidine], the “pressure reduction in the nontreated (contralateral) eye relative to the treated eye” value in the series with normotensive rabbits (0.02% in normotensive rabbits, U.S. Pat. No. 5,304,569) is listed as 100%. For the same compound, in the series with normotensive rabbits (0.05% in normotensive rabbits, Vartiainen et al), the pressure reduction is 4.75 mm Hg. Also, the “contralateral (nontreated eye) IOP reduction compared to the treated eye” value in the series on normotensive rabbits was “about 100%”. The “time of peak effect” value in the series on normotensive rabbits is reported as “about 2 hours”. Besides, the “α2:α1” value in series [1] is recorded as 1620. Besides, in the series on one eye of an individual (after the application), the “start of decrease in hyperemia and increase in whiteness” value is reported as “about 2 minutes”. Also, the “time to maximum whiteness” value in the series on one eye of an individual (after the application) was “about 10 minutes”. Also, the “Eye White Shade” value in the series on one eye of an individual (dexmedetomidine 0.010%, 4 (whitest)-1 off-white-gray/yellow) amounted to 1; with one eye of an individual (dexmedetomidine 0.022%, scale 4-1), 1.25; in the series with one eye of an individual (dexmedetomidine 0.050%, scale 4-1) it was 1.5; in the series on one eye of an individual (dexmedetomidine 0.10%, scale 4-1) it was 1.75; with one eye of an individual (dexmedetomidine […], scale 4-1), 1.5. Moreover, the Redness with one eye of an individual (dexmedetomidine 0.010%, scale 0 (none)-4 (reddest + chemosis)) came out at 1.25; with one eye of an individual (dexmedetomidine 0.022%, scale 0-4), 1.25; in the series with one eye of an individual (dexmedetomidine 0.050%, scale 0-4), 1.0; in the series with one eye of an individual (dexmedetomidine 0.10%, scale 0-4), 0.75; with one eye of an individual (dexmedetomidine […], scale 0-4) it was 1.0. Besides, in the series on one eye of an individual (in vivo), the “total duration of the effect (reduced hyperemia, increase in whiteness)” value was 3 to 5 h. Moreover, the max soluble concentration is, setting by setting: (pH 6) 0.195%; (pH 6.4) 0.060%; (pH 7) 0.023%; (pH 7.4) 0.015%; (pH 8) 0.013%. Besides, the “solubility” value (pH 6) stood at 1953 µg/mL (≈ 9750 µM), the “solubility” value (pH 7) was 224 µg/mL (≈ 1120 µM) and the “solubility” value (pH 8) worked out at 134 µg/mL (≈ 669 µM). In addition, in the series with normotensive eyes, the “more effective than brimonidine by (IOP reduction vs. time)” value is recorded as “about 200%”. Further, in series [2], the “equivalent reduction in normotensive human eyes” value is “about 20%”.
With `CC(Oc1c(Cl)cccc1Cl)C1=NCCN1` (stereo not shown) [Lofexidine], the “α2:α1” value in series [1] was less than 300.
`Cc1cc(C(C)(C)C)c(O)c(C)c1CC1=NCCN1` [Oxymetazoline]: the “α2:α1” value in series [1] is given as 50.
Turning to `Cc1cccc(C)c1N=C1NCCCS1` [Xylazine], in series [1], the “α2:α1” value was 160.
For the compound brimonidine tartrate, the “peak IOP reduction” value with normotensive rabbits (0.10% solution in normotensive rabbits) was “about 6.2 mm Hg”.

In general, solubility refers to the dissolved amount per volume that the medium holds. Read a high solubility as a readily soluble substance.
